From patent US7807777B2, “Marker peptide for alzheimer's disease” (Immuno-Biological Laboratories Co., Ltd., priority 2003, dated 2010)

Experiments:
presenilin [1] = test: Western blotting of cell lysates of HEK293 cells expressing APP695, Alcα, Alcβ or Alcγ, with or without presenilin inhibitor; type: cell-based; settings: 1 μl of 1 mM DMSO solution per 1 ml culture medium, 24 hrs
Procedure: A DNA encoding Alcα, Alcβ, Alcγ, or APP695 (an isoform of human APP consisting of 695 amino acids) was inserted into a mammalian expression vector pcDNA3.1 (Invitrogen).
HEK293 cells were seeded in DMEM (D5796: Sigma) containing 10% fetal bovine serum in a 6-well culture plate (area of base: 10 cm^2) and transfected with the expression vector prepared above by using a transfection reagent (LipofectAMINE 2000: Invitrogen). As a control, HEK293 cells were similarly transfected with an empty pcDNA3.1 vector.
One microliter of a DMSO solution containing 1 mM of a presenilin inhibitor L-685,458 (Calbiochem) was added to 1 ml of the culture medium. After the incubation for 24 hrs, a sample of the culture medium was taken. As a control, an equal quantity of DMSO instead of the L-685,458 solution was added to the culture medium and similarly incubated. Then, a sample of the culture medium was taken. The sample of the culture medium was added to 1 ml of HBST buffer (10 mM HEPES of pH 7.4, 150 mM sodium chloride, 0.5% Triton X-100, 5 μg/ml chymostatin, 5 μg/ml leupeptin, and […]) for extracting proteins of the cells. The solubilized cells were centrifuged (12000×g, 10 min) and supernatant was collected to recover the solubilized components. The solubilized components (7.5 μl) were added to 7.5 μl of a sample-buffer mixture (a mixture of 5 μl of 5×SDS sample buffer and 2.5 μl of 8 M urea solution) and boiled for 5 min. This sample was subjected to SDS-PAGE of 8/15% 2-stage gel and then the proteins were transferred on a nitrocellulose membrane for conducting Western blotting. The SDS-PAGE was performed according to the general method of Laemmli. As the primary antibody, an anti-APP cytoplasmic domain antibody (G369, 1/2000 dilution), anti-Alcα antibody (UT83, 0.3 μg/ml), anti-Alcβ antibody (UT99, 0.5 μg/ml), and anti-Alcγ antibody (UT105, 1/500 dilution) were used. The detection was performed by using an ECL kit (Pharmacia). The UT99 and UT105 are antibodies recognizing the C-terminals of Alcβ and Alcγ, respectively. FIG. 6 and FIG. 7A to C show the results.

presenilin [2] = test: Incubation of membrane fragments of HEK293 cells expressing Alcα, Alcβ or Alcγ, Western blotting with anti-Alc antibodies; type: biochemical; settings: Alcβ and Alcγ, final concentration 1 μM, 37° C. for 1 or 3 hrs, FIG. 8A to C
Procedure: DNAs encoding Alcα, Alcβ, or Alcγ were each inserted into a mammalian expression vector pcDNA3.1 (Invitrogen).
HEK293 cells were seeded in DMEM containing 10% fetal bovine serum in a 10-cm culture plate (area of base: 60 cm^2) and transfected with the expression vector prepared above by using a transfection reagent (LipofectAMINE 2000: Invitrogen). As a control, HEK293 cells were transfected with an empty pcDNA3.1 vector.
After the incubation for 24 hrs, the culture medium was removed and the cells were washed with ice-cooled PBS. Then, 10 ml of PBS was added again. The cells were detached from the plate by pipetting and transferred into a 15 ml Falcon tube. The cells were collected by centrifugation (1500 rpm, 10 min, low-speed refrigerated centrifuge: Beckmann) as a pellet of the cells. One milliliter of buffer D (0.25 M sucrose, 10 mM triethanolamine-acetate of pH 7.8, 5 μg/ml chymostatin, 5 μg/ml leupeptin, and 5 μg/ml pepstatin) was added to the pellet of the cells, and the cells were broken by 12 passages through a 27 G needle. Then, the broken cells were centrifuged with a TOMY TMA-6 rotor at 3000 rpm (1000×g) for 10 min at 4° C. to remove unbroken cells and nuclei and to obtain a nucleus-removed cell homogenate. […]

CC(C)C[C@H](NC(=O)[C@H](Cc1ccccc1)C[C@@H](O)[C@H](Cc1ccccc1)NC(=O)OC(C)(C)C)C(=O)N[C@@H](Cc1ccccc1)C(N)=O [L-685,458]
C-terminal fragment (CTFα) of APP in the cell lysate (presenilin [1]; HEK293 cells expressing APP695, FIG. 6): a large amount of the C-terminal fragment (CTFα) was detected in the cell lysate only when the presenilin inhibitor (L-685,458) was added | C-terminal fragment (CTF1) of Alcα in the cell lysate (presenilin [1]; HEK293 cells expressing Alcα, FIG. 7A): C-terminal fragments (CTF1) were detected only when the presenilin inhibitor was added | C-terminal fragment of Alcβ in the cell lysate (presenilin [1]; HEK293 cells expressing Alcβ, FIG. 7B): detected even when the presenilin inhibitor was not added | C-terminal fragment (CTF1) of Alcγ in the cell lysate (presenilin [1]; HEK293 cells expressing Alcγ, FIG. 7C): C-terminal fragments (CTF1) were detected only when the presenilin inhibitor was added | fragments (such as Alcα-ICD) containing the C-terminal of each Alc (presenilin [2]): such fragments were not detected
